The numbers were not newly measured in paper PMC6941357, “An in vitro toolbox to accelerate anti-malarial drug discovery and development” (Malaria Journal, 2020), which cites them from elsewhere.

In data set [1] the test system is human liver microsomes. The following applies: ref 79 (DSM265), 78 (DSM421); cited from earlier work.
Another data set concerns the target CYP3A4 (Homo sapiens, UniProt P08684). More on the design: from tissue; host or cells: human liver microsomes. The following applies: human liver microsomes, cited from earlier work. For orientation: Liver microsomes are vesicles of endoplasmic reticulum, rich in cytochrome P450 enzymes.
On the set-up of data set [2]: method as in earlier work. The conditions noted are these: octanol/pH 7.4 buffer; ref 77 (M5717), 78 (DSM421); cited from earlier work.
The next data set deals with T1, CYP1A2 (Homo sapiens, UniProt P05177).
T1 sequence (P05177 1-516): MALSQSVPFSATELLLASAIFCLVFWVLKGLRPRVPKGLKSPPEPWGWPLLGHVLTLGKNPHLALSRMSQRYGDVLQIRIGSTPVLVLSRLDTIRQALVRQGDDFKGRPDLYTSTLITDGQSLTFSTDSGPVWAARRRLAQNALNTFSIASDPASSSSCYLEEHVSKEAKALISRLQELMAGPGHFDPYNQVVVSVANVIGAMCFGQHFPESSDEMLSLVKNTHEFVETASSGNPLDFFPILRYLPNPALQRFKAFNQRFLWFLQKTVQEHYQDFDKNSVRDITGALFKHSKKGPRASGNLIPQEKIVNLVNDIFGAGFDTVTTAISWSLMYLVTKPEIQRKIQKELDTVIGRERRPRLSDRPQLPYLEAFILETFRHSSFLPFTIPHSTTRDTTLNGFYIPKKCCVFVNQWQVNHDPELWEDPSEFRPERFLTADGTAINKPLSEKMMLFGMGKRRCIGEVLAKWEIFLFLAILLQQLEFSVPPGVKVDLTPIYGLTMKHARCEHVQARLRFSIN
More on the design: from tissue; host or cells: human liver microsomes. The following applies: human liver microsomes, cited from earlier work; for CYP1A2 % inhibition at max conc: nmi = no measurable inhibition.

For data set [3] the following is noted: cited from earlier work; for Solubility FaSSGF (1 h) / Solubility FaSSIF-V2 (5–6 h) / Solubility FeSSIF-V2 (5–6 h): ref 77 (M5717), 78 (DSM421), 79 (DSM265).
Another data set concerns the target CYP2D6 (Homo sapiens, UniProt P10635). More on the design: from tissue; host or cells: human liver microsomes. The following applies: human liver microsomes, cited from earlier work.
The target in data set [4] is T2, Albumax medium (lipid rich bovine serum albumin) (Bos taurus, UniProt P02769).
T2 construct: purchased Gibco, Thermo Fisher Scientific
T2 sequence (P02769 25-607): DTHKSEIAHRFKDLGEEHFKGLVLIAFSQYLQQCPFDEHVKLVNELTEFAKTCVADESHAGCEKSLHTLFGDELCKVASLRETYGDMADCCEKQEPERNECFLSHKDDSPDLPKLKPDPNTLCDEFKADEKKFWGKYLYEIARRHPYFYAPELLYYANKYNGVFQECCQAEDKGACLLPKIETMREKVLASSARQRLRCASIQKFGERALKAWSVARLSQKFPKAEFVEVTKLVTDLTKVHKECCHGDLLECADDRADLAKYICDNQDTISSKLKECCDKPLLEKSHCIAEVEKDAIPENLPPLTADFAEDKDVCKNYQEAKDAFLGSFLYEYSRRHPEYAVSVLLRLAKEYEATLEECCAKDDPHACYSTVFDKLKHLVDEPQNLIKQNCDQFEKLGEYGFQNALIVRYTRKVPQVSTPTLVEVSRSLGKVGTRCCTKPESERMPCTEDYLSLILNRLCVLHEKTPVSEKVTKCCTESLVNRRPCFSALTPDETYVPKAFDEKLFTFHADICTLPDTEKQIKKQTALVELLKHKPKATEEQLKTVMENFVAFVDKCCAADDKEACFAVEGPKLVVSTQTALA
Details: method as in PMID 26180101. The following applies: cited from earlier work.

For data set [5], the system named is human liver microsomes. The following applies: human liver microsomes, cited from earlier work.
Setting [6] is: CYP3A4 (test), read-out: CYP3A4 (test) IC50.

Several values for one entry are separate records, joined by “and”; a condition that tells them apart may be missing. Identical values can stand only once. Like-named read-outs stand apart in the source and are kept apart here. Marks after values point to notes of the source that are not given here.

Sequence of CYP3A4 (P08684 whole entry): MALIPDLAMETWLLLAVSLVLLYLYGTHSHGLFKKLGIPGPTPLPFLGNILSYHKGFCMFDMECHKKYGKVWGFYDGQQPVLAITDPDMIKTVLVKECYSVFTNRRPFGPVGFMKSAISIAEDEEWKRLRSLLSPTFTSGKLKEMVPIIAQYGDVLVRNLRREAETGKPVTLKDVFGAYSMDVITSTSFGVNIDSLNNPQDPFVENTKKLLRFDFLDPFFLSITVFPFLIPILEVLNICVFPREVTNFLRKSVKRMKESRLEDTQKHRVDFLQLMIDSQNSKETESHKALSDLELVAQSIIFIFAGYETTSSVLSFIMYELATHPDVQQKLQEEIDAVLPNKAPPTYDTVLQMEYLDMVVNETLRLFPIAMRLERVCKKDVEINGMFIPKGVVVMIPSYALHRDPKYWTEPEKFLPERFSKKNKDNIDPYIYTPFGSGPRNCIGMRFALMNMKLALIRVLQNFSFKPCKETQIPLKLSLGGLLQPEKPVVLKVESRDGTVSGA
Sequence of CYP2D6 (P10635 whole entry): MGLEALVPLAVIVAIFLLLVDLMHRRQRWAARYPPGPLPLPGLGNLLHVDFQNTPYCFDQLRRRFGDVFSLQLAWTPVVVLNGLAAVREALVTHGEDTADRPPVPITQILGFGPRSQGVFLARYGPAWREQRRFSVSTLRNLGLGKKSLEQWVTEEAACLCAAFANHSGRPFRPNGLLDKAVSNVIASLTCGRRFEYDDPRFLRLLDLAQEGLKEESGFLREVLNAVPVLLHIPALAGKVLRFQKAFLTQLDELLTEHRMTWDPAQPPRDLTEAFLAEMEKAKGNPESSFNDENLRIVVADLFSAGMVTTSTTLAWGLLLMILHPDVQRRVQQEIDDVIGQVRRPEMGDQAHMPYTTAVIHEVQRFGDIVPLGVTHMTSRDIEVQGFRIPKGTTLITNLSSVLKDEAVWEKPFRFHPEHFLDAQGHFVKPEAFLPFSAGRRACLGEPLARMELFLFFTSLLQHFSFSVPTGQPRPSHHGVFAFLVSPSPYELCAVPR

As to `Cc1cc(Nc2ccc(C(F)(F)F)nc2)n2nc(C(C)(F)F)nc2n1` [DSM421], the “Fraction unbound, HLM” value in the data set with human liver microsomes [1] is listed as 0.77 ± 0.065^f. Further, the “CYP3A4 (test) % inhibition at max conc” value on CYP3A4 (CYP3A4 (test), nmi = no measurable inhibition) is on record as “nmi”. The IC50 (commonly the midpoint of a concentration-inhibition curve) on CYP3A4 (setting [6]) is greater than 20 µM. Besides, in data set [2], the “Measured Log D7.4” value was 2.36 ^g. Also, on CYP1A2, the IC50 was greater than 20 µM and the “CYP1A2 % inhibition at max conc” value is on record as “nmi”. In data set [3], the “Solubility FaSSGF (1 h)” value was 116 µg/mL and 324 µM; the “Solubility FaSSIF-V2 (5–6 h)” value is 92.7 µg/mL and 259 µM; the “Solubility FeSSIF-V2 (5–6 h)” value is 119 µg/mL and 332 µM. At CYP2D6, the “CYP2D6 % inhibition at max conc” value was 33% and the half-maximal inhibitory concentration (IC50) was greater than 20 µM.

On to `O=C(NCCN1CCCC1)c1cc(-c2ccc(CN3CCOCC3)cc2)nc2ccc(F)cc12` [M5717], for which the “Measured Log D7.4” value in data set [2] is 2.50 ^g. Besides, in data set [3], the “Solubility PBS7.4 (5–6 h)” value was > 3000 µg/mL and > 6490 µM; the “Solubility FaSSGF (1 h)” value was > 3000 µg/mL and > 6490 µM; the “Solubility FaSSIF-V2 (5–6 h)” value was > 3000 µg/mL and > 6490 µM; the “Solubility FeSSIF-V2 (5–6 h)” value is > 3000 µg/mL and > 6486 µM.

As for `Cc1cc(Nc2ccc(S(F)(F)(F)(F)F)cc2)n2nc(C(C)(F)F)nc2n1` [DSM265], in the data set on human liver microsomes [1], the “Fraction unbound, HLM” value is on record as 0.28 ± 0.0070^f. For the same compound, in data set [4], the “Fraction unbound, Albumax” value is listed as 0.18 ± 0.0050^f. Besides, the “HLM CLint” value in the data set with human liver microsomes [5] (< 15% loss over 60 min) is listed as < 7^b,e µL/min/mg. Also, at CYP3A4 (CYP3A4 (test)), the “CYP3A4 (test) % inhibition at max conc” value was 34%. For the same compound, at CYP3A4 (setting [6]), the IC50 is greater than 20 µM. In addition, at CYP1A2, the IC50 was greater than 20 µM and the “CYP1A2 % inhibition at max conc” value is “nmi”. Moreover, the “Solubility FaSSIF-V2 (5–6 h)” value in data set [3] was 5.12 µg/mL and 12.3 µM. Further, at CYP2D6, the IC50 is 7.1 µM and the Ki (usually the equilibrium dissociation constant of an inhibitor or competing ligand from its target) is 4.4 µM.

For the compound `CS(=O)(=O)O.FC1CCN(CCOc2ccc(C3CCC4(CC3)OOC3(OO4)C4CC5CC(C4)CC3C5)cc2)CC1` (centres unmarked) [TDD-E209], the “HLM CLint” value in the data set with human liver microsomes [5] is on record as 25.5^e µL/min/mg. In addition, the “CYP3A4 (midaz) % inhibition at max conc” value on CYP3A4 (CYP3A4 (midaz)) was 33%. Besides, the IC50 at CYP3A4 (CYP3A4 (midaz), read-out: CYP3A4 (midaz) IC50) was greater than 20 µM; at CYP3A4 (setting [6]), greater than 20 µM; on CYP1A2, greater than 20 µM; at CYP2D6 it was greater than 20 µM. At CYP3A4 (CYP3A4 (test)), the “CYP3A4 (test) % inhibition at max conc” value is on record as 43%. Also, the “CYP1A2 % inhibition at max conc” value at CYP1A2 is listed as “nmi”. The “CYP2D6 % inhibition at max conc” value at CYP2D6 (nmi = no measurable inhibition) is recorded as “nmi”.
